Results as given in patent US20050042172A1, “Administration of medicaments by vaporisation” (priority 2001, published 2005).

What was measured:
[1] = some clinical studies and anecdotal reports; a perception; cited from earlier work
[2] = Reports of subjects taking THCV; format: in vivo
Source text: In a further aspect the invention also provides compositions which have specific ratios of tetrahydrocannabinovarin (THCV) or cannabidivarin (CBDV).

[3] = Pain relief, THC alone versus cannabis extract

## C=C(C)[C@@H]1CCC(C)=C[C@H]1c1c(O)cc(CCCCC)cc1O [CBD, cannabidiol]
[1]
  effect on psychoactive effects of THC: modifies the psychoactive effects of THC

## CCCc1cc(O)c2c(c1)OC(C)(C)[C@@H]1CCC(C)=C[C@@H]21 [THCV, tetrahydrocannabinovarin]
[2]
  hangover: less severe hangover
[2]; compared with THC
  mood enhancement: less disturbing than that produced by THC

## CCCCCc1cc(O)c2c(c1)OC(C)(C)[C@@H]1CCC(C)=C[C@@H]21 [THC, tetrahydrocannabinol]
[3]
  degree of pain relief: lower degree of pain relief
